The record followed here is US12053506B2, “Romo1-derived antimicrobial peptides and variants thereof” (priority 2019, dated 2024).

The subject of data set [1] is Staphylococcus aureus, Pseudomonas aeruginosa, Klebsiella pneumoniae and Acinetobacter baumannii. The data set is described as follows: Survival rate of mice injected with gram-positive or gram-negative bacteria. The data set is classed as in vivo, mice (C57BL/6). As to conditions: FIG. 3, bacteria only 0 to 20%. An excerpt: Following Example 2-2, in order to evaluate the antibacterial activity of KU-5878 peptide in vivo, Staphylococcus aureus as gram-positive bacteria, Pseudomonas aeruginosa, Klebsiella pneumoniae and Acinetobacter baumannii as gram-negative bacteria, and multidrug-resistant Pseudomonas aeruginosa, methicillin-resistant Staphylococcus aureus, multidrug-resistant Klebsiella pneumoniae and multidrug-resistant Acinetobacter baumannii as multidrug-resistant bacteria were selected, and the following experiment was performed.
The experimental method is as described in Example 2-2 above. For a positive group, each type of the bacteria was injected into mice, and after 24 hours, 30 mg/kg of imipenem, a carbapenem-based antibiotic, was injected intraperitoneally (IP), and then the same amount of imipenem was administered intraperitoneally a total of 4 times at 12-hour intervals. The survival rates of each control group and the experimental group were measured at 24-hour intervals.

The nature of data set [2]: Toxicity in vivo after intravenous injection. Details: species or system mouse (C57BL/6). The following applies: 100 mg/kg intravenous. The protocol: At this time, the maximum volume of the injection dose was 150 μl.
Data set [3] relates to Staphylococcus aureus, Pseudomonas aeruginosa, methicillin-resistant Staphylococcus aureus and multidrug-resistant Pseudomonas aeruginosa. The data set is described as follows: Bacteria remaining in the blood of intravenously infected mice. In kind it is in vivo, mice (C57BL/6). As to conditions: 10 mg/kg intravenous 1 hour after infection; blood collected 40 minutes after injection; compared with LL-37, magainin 2, daptomycin. The protocol: Specifically, Staphylococcus aureus, Pseudomonas aeruginosa, methicillin-resistant Staphylococcus aureus and multidrug-resistant Pseudomonas aeruginosa was cultured in 3% (w/v) TSB liquid medium at 37° C. and 200 rpm for 4 hours, and then further cultured under the same conditions for 3 hours to a concentration of 5×10^9 CFU/ml. Strain solutions were prepared by diluting each of the further cultured strains with PBS solution to a final concentration of 1×10^5 CFU/μl.
Next, 100 μl of each strain solution was injected intravenously (IV) into the tail vein of each of 10-week-old male mice (C57BL/6). After one hour, KU-5878 was intravenously injected at a concentration of 10 mg/kg. As a control, PBS was intravenously injected at a concentration of 10 mg/kg, and as a positive control, LL-37, magainin 2, or daptomycin was intravenously injected at a concentration of 10 mg/kg.
40 minutes after the intravenous injection of each drug, about 1 cm from the tail end of each mouse was cut using surgical scissors, and 10 μl of the blood at the end of the cut was collected and diluted in PBS. The diluted blood sample was plated on a previously prepared TSB agar plate and incubated in an incubator at 37° C. for 18 hours, and the formed colonies were counted for comparison.

The test system of data set [4] is Human vascular endothelial cells (HUVECs). Nature of the data set: Toxicity to human vascular endothelial cells (MTT). As to conditions: 0 μg/ml to 300 μg/ml; FIG. 5. In kind it is cell-based. The protocol: PBS was used as a control.
The HUMEC medium was replaced with fresh medium, and KU-5878, melittin or magainin 2 were dispensed at various concentrations (0 μg/ml to 300 μg/ml). Then, each well was treated with 100 μl of MTT reagent and incubated at 37° C. for 2 hours. Then, the medium and the peptide were carefully removed so as not to separate the cells, and 100 μl of DMSO (dimethyl sulfoxide) was added to each well, and the absorbance at a wavelength of 570 nm was measured using a spectrophotometer. Relative cell viability was calculated as a percentage of the viability of untreated control cells.

Data set [5] deals with Multidrug-resistant K. pneumoniae. The following applies: Multidrug-resistant. The protocol: (§1) The minimum bactericidal concentration assay was the same as the method used in Example 1.
(§2) Specifically, each type of bacteria was cultured in 3% (w/v) TSB (Tryptic Soy Broth) liquid medium at 37° C. and 200 rpm for 4 hours, and then further cultured under the same conditions for 3 hours to a concentration of 5×10^6 CFU/ml. Strain solutions were prepared by diluting each of the […] of 2×10^5 CFU/ml.
(§3) Then, the KU-5878 peptide at varying concentrations (0 μg/ml to 300 μg/ml) was dispensed into each well of a 96-well microplate, and 100 μl (1×10^5 CFU/ml) of each of the prepared strain solutions was added thereto, mixed therewith, and allowed to react with the peptide in an incubator at 37° C. for 1 hour.
(§4) In addition, 10 μl of each reaction solution of the peptide and the strain was plated on the TS agar plate at a constant size, and incubated in an incubator at 37° C. for 18 hours, and then colony formation on the plate was checked.
(§5) Meanwhile, the multidrug-resistant Pseudomonas aeruginosa, multidrug-resistant Acinetobacter and multidrug-resistant Klebsiella in Table 2 below were bacteria isolated from patients at Korea University Anam Hospital. […] Then, these bacteria were used in the experiment.

For data set [6], the system named is Multidrug-resistant A. baumannii. The following applies: Multidrug-resistant. The protocol:
as §1, §2, §3, §4, §5

The test system of data set [7] is Pseudomonas aeruginosa and Staphylococcus aureus. Nature of the data set: MBC assay, antibacterial activity of Romo1-derived peptides compared in words. The data set is classed as cell-based. As to conditions: Table 1 peptides. The source says: Romo1 protein comprises two α-helices. The present inventors synthesized the α-helix 2 region having both hydrophilicity and hydrophobicity, and evaluated the antibacterial activity thereof using minimum bactericidal concentration (MBC) assay. The α-helix 2 region was named KU-5279 (the 52-79 amino acid region of Romo1 protein). Then, in order to identify peptides that are beneficial for human application and have excellent antibacterial activity, the present inventors synthesized several peptides comprising a sequence of contiguous amino acids starting at any amino acid selected from the 52-79 amino acid region of Romo1 protein, and comparatively evaluated the antibacterial activities of the peptides by minimum bactericidal concentration assay (See Table 1 below for information on each peptide). Evaluation of the antibacterial activity of each peptide by minimum bactericidal concentration assay was specifically performed as follows. First, each of Pseudomonas aeruginosa (ATCC 27853) and Staphylococcus aureus (ATCC 29213) was cultured in 3% (w/v) TSB (Tryptic Soy Broth) liquid medium at 37° C. and 200 rpm for 4 hours, and then further cultured under the same conditions for 3 hours to a concentration of 5×10^6 CFU/ml. […]

No end group written: not given here.

As to KTMMQSGGTFGTFMAIGMGIR [KU-5878], the “survival rate of the mice” value in data set [1] is reported as 60%. Moreover, in data set [2] (12 days), the “survival of mice after injection” value is given as “all survived”. The “effect on the weight of the mice” value in data set [2] (weights at 24-hour intervals for 12 days, FIG. 7) is recorded as “no effect on the weight of the mice”. Further, the “number of bacteria remaining in the blood vessels of the mice” value in data set [3] is “most greatly decreased”. Besides, the “toxicity to the HUVECs (relative cell viability, MTT)” value in data set [4] is on record as “very low toxicity”. Also, the “MBC value (μg/ml), Multidrug-resistant K. pneumoniae” value in data set [5] turned out to be 100 µg/mL. The “MBC value (μg/ml), Multidrug-resistant A. baumannii” value in data set [6] amounted to 110 µg/mL. For the same sequence, the “antibacterial activity by MBC assay, in words” value in data set [7] was “three times better antibacterial activity than KU-5279”.
